According to the NIST ThermoML archive (doi:10.1016/j.tca.2016.07.005):

Assay: xn = mol fraction of the nth substance listed
Conditions: 101.3 kPa, Liquid; for viscosity: Concentric cylinders viscometry; for mass density: Vibrating tube method

O=S1(=O)CCCC1 [sulfolane] + CCCC[n+]1ccn(C)c1.O=S(=O)([N-]S(=O)(=O)C(F)(F)F)C(F)(F)F
Conditions | mass density [kg/m3] | viscosity [mPa·s]
293.15 K, x2 = 0.1 | 1315.1 | 16.7
293.15 K, x2 = 0.1999 | 1345.9 | 19.8
293.15 K, x2 = 0.3001 | 1368.7 | 23.8
293.15 K, x2 = 0.4 | 1386.1 | 28.2
293.15 K, x2 = 0.5001 | 1400.1 | 32.9
293.15 K, x2 = 0.5999 | 1411.3 | 38
293.15 K, x2 = 0.7 | 1420.8 | 43.2
293.15 K, x2 = 0.7995 | 1428.6 | 49.6
293.15 K, x2 = 0.8985 | 1435.3 | 55.1
298.15 K, x2 = 0 | 1266.4 | 11.9
298.15 K, x2 = 0.1 | 1310.6 | 14.8
298.15 K, x2 = 0.1999 | 1341.3 | 17
298.15 K, x2 = 0.3001 | 1364.6 | 19.9
298.15 K, x2 = 0.4 | 1381.3 | 23.2
298.15 K, x2 = 0.5001 | 1395.3 | 26.7
298.15 K, x2 = 0.5999 | 1406.5 | 30.8
298.15 K, x2 = 0.7 | 1416 | 34.7
298.15 K, x2 = 0.7995 | 1423.8 | 39.8
298.15 K, x2 = 0.8985 | 1430.5 | 44.4
303.15 K, x2 = 0 | 1259.4 | 10.5
303.15 K, x2 = 0.1 | 1306.1 | 12.8
303.15 K, x2 = 0.1999 | 1336.7 | 14.3
303.15 K, x2 = 0.3001 | 1359.1 | 16.5
303.15 K, x2 = 0.4 | 1376.6 | 18.8
303.15 K, x2 = 0.5001 | 1390.5 | 21.5
303.15 K, x2 = 0.5999 | 1401.7 | 24.7
303.15 K, x2 = 0.7 | 1411.1 | 27.3
303.15 K, x2 = 0.7995 | 1419 | 31.1
303.15 K, x2 = 0.8985 | 1425.7 | 35.1
313.15 K, x2 = 0 | 1251.7 | 8.1
313.15 K, x2 = 0.1 | 1297 | 9.7
313.15 K, x2 = 0.1999 | 1327.5 | 10.7
313.15 K, x2 = 0.3001 | 1349.4 | 12.3
313.15 K, x2 = 0.4 | 1367.2 | 13.4
313.15 K, x2 = 0.5001 | 1381.1 | 15.4
313.15 K, x2 = 0.5999 | 1392.2 | 17.6
313.15 K, x2 = 0.7 | 1401.6 | 18.7
313.15 K, x2 = 0.7995 | 1409.4 | 21.2
313.15 K, x2 = 0.8985 | 1416.1 | 24.4
323.15 K, x2 = 0 | 1244 | 6.4
323.15 K, x2 = 0.1 | 1288 | 7.7
323.15 K, x2 = 0.1999 | 1318.3 | 8.4
323.15 K, x2 = 0.3001 | 1340.2 | 9.7
323.15 K, x2 = 0.4 | 1357.8 | 10.2
323.15 K, x2 = 0.5001 | 1371.6 | 11.9
323.15 K, x2 = 0.5999 | 1382.8 | 13.6
323.15 K, x2 = 0.7 | 1392.1 | 14.1
323.15 K, x2 = 0.7995 | 1399.9 | 16
323.15 K, x2 = 0.8985 | 1406.6 | 18.4
333.15 K, x2 = 0 | 1235.4 | 5.2
333.15 K, x2 = 0.1 | 1279 | 5.7
333.15 K, x2 = 0.1999 | 1309 | 6.3
333.15 K, x2 = 0.3001 | 1331 | 7.3
333.15 K, x2 = 0.4 | 1348.4 | 7.5
333.15 K, x2 = 0.5001 | 1362.2 | 9.2
333.15 K, x2 = 0.5999 | 1373.3 | 10.5
333.15 K, x2 = 0.7 | 1382.6 | 10.8
333.15 K, x2 = 0.7995 | 1390.4 | 12.2
333.15 K, x2 = 0.8985 | 1397.1 | 14.1
343.15 K, x2 = 0 | 1225 | 4.3
343.15 K, x2 = 0.1 | 1269.9 | 4.6
343.15 K, x2 = 0.1999 | 1299.8 | 5.1
343.15 K, x2 = 0.3001 | 1321.8 | 5.9
343.15 K, x2 = 0.4 | 1339.1 | 6.2
343.15 K, x2 = 0.5001 | 1352.8 | 7.3
343.15 K, x2 = 0.5999 | 1363.9 | 8.2
343.15 K, x2 = 0.7 | 1373.2 | 8.6
343.15 K, x2 = 0.7995 | 1381 | 9.5
343.15 K, x2 = 0.8985 | 1387.6 | 10.7

O=S1(=O)CCCC1 [sulfolane] + OCC(O)CO
Conditions | mass density [kg/m3] | viscosity [mPa·s]
313.15 K, x2 = 0 | 1251.7 | 8.1
313.15 K, x2 = 0.1002 | 1249.6 | 8.5
313.15 K, x2 = 0.2002 | 1248.8 | 10.5
313.15 K, x2 = 0.3002 | 1248.4 | 14.4
313.15 K, x2 = 0.4001 | 1247.8 | 19.2
313.15 K, x2 = 0.5001 | 1247.5 | 30.4
313.15 K, x2 = 0.5999 | 1247.5 | 46.2
313.15 K, x2 = 0.6999 | 1247.5 | 70.7
313.15 K, x2 = 0.7999 | 1248.5 | 101
313.15 K, x2 = 0.8993 | 1248.9 | 164
323.15 K, x2 = 0 | 1244 | 6.4
323.15 K, x2 = 0.1002 | 1240.9 | 7.2
323.15 K, x2 = 0.2002 | 1240.1 | 8.5
323.15 K, x2 = 0.3002 | 1239.7 | 11.2
323.15 K, x2 = 0.4001 | 1239.2 | 14.4
323.15 K, x2 = 0.5001 | 1239.1 | 22
323.15 K, x2 = 0.5999 | 1239.2 | 32.2
323.15 K, x2 = 0.6999 | 1239.7 | 45.9
323.15 K, x2 = 0.7999 | 1241.2 | 66.5
323.15 K, x2 = 0.8993 | 1241.9 | 103
333.15 K, x2 = 0 | 1235.4 | 5.2
333.15 K, x2 = 0.1002 | 1232.1 | 5.8
333.15 K, x2 = 0.2002 | 1231.3 | 6.6
333.15 K, x2 = 0.3002 | 1231 | 8.3
333.15 K, x2 = 0.4001 | 1230.7 | 10.4
333.15 K, x2 = 0.5001 | 1230.7 | 14.6
333.15 K, x2 = 0.5999 | 1231.1 | 20.3
333.15 K, x2 = 0.6999 | 1232 | 28.8
333.15 K, x2 = 0.7999 | 1233.7 | 41.8
333.15 K, x2 = 0.8993 | 1234.8 | 61.7
343.15 K, x2 = 0 | 1225 | 4.3
343.15 K, x2 = 0.1002 | 1223.2 | 4.7
343.15 K, x2 = 0.2002 | 1222.5 | 5.3
343.15 K, x2 = 0.3002 | 1222.3 | 6.3
343.15 K, x2 = 0.4001 | 1222.3 | 7.7
343.15 K, x2 = 0.5001 | 1222.7 | 10.2
343.15 K, x2 = 0.5999 | 1223.3 | 13.6
343.15 K, x2 = 0.6999 | 1224.1 | 18.5
343.15 K, x2 = 0.7999 | 1226.2 | 26.6
343.15 K, x2 = 0.8993 | 1227.5 | 38
353.15 K, x2 = 0 | 1215 | 3.7
353.15 K, x2 = 0.1002 | 1214.3 | 3.9
353.15 K, x2 = 0.2002 | 1213.7 | 4.3
353.15 K, x2 = 0.3002 | 1213.6 | 4.9
353.15 K, x2 = 0.4001 | 1213.8 | 6
353.15 K, x2 = 0.5001 | 1214.4 | 7.4
353.15 K, x2 = 0.5999 | 1215.3 | 9.8
353.15 K, x2 = 0.6999 | 1216.1 | 12.9
353.15 K, x2 = 0.7999 | 1218.5 | 18
353.15 K, x2 = 0.8993 | 1220.2 | 24.9
363.15 K, x2 = 0 | 1206 | 3.2
363.15 K, x2 = 0.1002 | 1205.3 | 3.3
363.15 K, x2 = 0.2002 | 1204.8 | 3.5
363.15 K, x2 = 0.3002 | 1204.8 | 4
363.15 K, x2 = 0.4001 | 1205.1 | 4.7
363.15 K, x2 = 0.5001 | 1205.9 | 5.8
363.15 K, x2 = 0.5999 | 1206.9 | 7.4
363.15 K, x2 = 0.6999 | 1208 | 9.4
363.15 K, x2 = 0.7999 | 1210.7 | 12.7
363.15 K, x2 = 0.8993 | 1212.7 | 17.1
